According to patent US20230091047A1 (priority 2019, published 2023):

Key:
in vitro = format: cell-based; details: human, HepG2 or HepG2.117 cells, 3-days incubation (unmarked values), ATPlite; mean value
Procedure, shortened: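 Luminescent ATP quantitation served as the viability endpoint following a 3- or 4-day incubation with test compounds.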

[1] = test system: HBV (HepG2.117 cell line, inducibly HBV producing); test: Anti-HBV activity: intracellular HBV DNA by real-time PCR in HepG2.117 cells after 3 days of treatment; format: cell-based, hepatitis B virus; details: Hepatitis B virus, HepG2.117, 72 h, HepG2.117 cells, 3 days of treatment, intracellular HBV DNA by real-time PCR; mean value; read-out: EC50 (μM, mean value)
Procedure, shortened: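 Antiviral effect is expressed through intracellular HBV DNA levels, determined by real-time PCR with a virus-specific probe. These levels were measured after 3 days of treatment with compound dilutions, in HepG2.117 cells induced to replicate HBV.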

Row | SMILES | CC50 at 3 days (in vitro) | EC50 [1]
1 | CCc1cc(C(=O)N2CCc3c(nc(NC(C)C)n(-c4ccc(S(C)(=O)=O)cc4)c3=O)C2)ccc1Cl [Compound C193, 7-(4-chloro-3-ethylbenzoyl)-3-[4-(methanesulfonyl)phenyl]-2-[(propan-2-yl)amino]-5,6,7,8-tetrahydropyrido[3,4-d]pyrimidin-4(3H)-one] | > 50 µM | 0.62 µM
2 | CC(C)Nc1nc2c(c(=O)n1-c1ccc(S(C)(=O)=O)cc1)CCN(C(=O)c1ccc(C(F)(F)F)c(Cl)c1)C2 [Compound C194, 7-[3-chloro-4-(trifluoromethyl)benzoyl]-3-[4-(methanesulfonyl)phenyl]-2-[(propan-2-yl)amino]-5,6,7,8-tetrahydropyrido[3,4-d]pyrimidin-4(3H)-one] | > 50 µM | 0.55 µM
3 | CC(C)Nc1nc2c(c(=O)n1-c1ccc(C(N)=O)cc1)C[C@@H](C)N(C(=O)c1ccc(Cl)c(Cl)c1)C2 [Compound C195, 4-[(6R)-7-(3,4-dichlorobenzoyl)-6-methyl-4-oxo-2-[(propan-2-yl)amino]-5,6,7,8-tetrahydropyrido[3,4-d]pyrimidin-3(4H)-yl]benzamide] | > 50 µM | 0.16 µM
4 | CC(C)Nc1nc2c(c(=O)n1-c1ccc(-c3ncc[nH]3)cc1)C[C@@H](C)N(C(=O)c1ccc(Cl)c(Cl)c1)C2 [Compound C196, (6R)-7-(3,4-dichlorobenzoyl)-3-[4-(1H-imidazol-2-yl)phenyl]-6-methyl-2-[(propan-2-yl)amino]-5,6,7,8-tetrahydropyrido[3,4-d]pyrimidin-4(3H)-one] | > 43 µM | 0.17 µM
5 | CC(C)Nc1nc2c(c(=O)n1-c1ccc(C(=O)NCCN)cc1)C[C@@H](C)N(C(=O)c1ccc(Cl)c(Cl)c1)C2 [Compound C197, N-(2-aminoethyl)-4-[(6R)-7-(3,4-dichlorobenzoyl)-6-methyl-4-oxo-2-[(propan-2-yl)amino]-5,6,7,8-tetrahydropyrido[3,4-d]pyrimidin-3(4H)-yl]benzamide] | > 50 µM | 1.81 µM
6 | C[C@@H]1Cc2c(nc(NC3(c4ccncc4)CC3)n(-c3ccc(S(C)(=O)=O)cc3)c2=O)CN1C(=O)c1ccc(Cl)c(Cl)c1 [Compound C198, (6R)-7-(3,4-dichlorobenzoyl)-3-[4-(methanesulfonyl)phenyl]-6-methyl-2-{[1-(pyridin-4-yl)cyclopropyl]amino}-5,6,7,8-tetrahydropyrido[3,4-d]pyrimidin-4(3H)-one] | > 50 µM | 3.25 µM
7 | CC(Nc1nc2c(c(=O)n1-c1ccc(S(C)(=O)=O)cc1)C[C@@H](C)N(C(=O)c1ccc(Cl)c(Cl)c1)C2)C1CC1 (stereo partly drawn) [Compound C199, (6R)-2-[(1-cyclopropylethyl)amino]-7-(3,4-dichlorobenzoyl)-3-[4-(methanesulfonyl)phenyl]-6-methyl-5,6,7,8-tetrahydropyrido[3,4-d]pyrimidin-4(3H)-one] | > 50 µM | 0.3 µM
8 | CC(C)Nc1nc2c(c(=O)n1-c1ccc(N3CC[C@H](O)C3)cc1)C[C@@H](C)N(C(=O)c1ccc(Cl)c(Cl)c1)C2 [Compound C200, (6R)-7-(3,4-dichlorobenzoyl)-3-{4-[(3S)-3-hydroxypyrrolidin-1-yl]phenyl}-6-methyl-2-[(propan-2-yl)amino]-5,6,7,8-tetrahydropyrido[3,4-d]pyrimidin-4(3H)-one] | 35.4 µM | 0.2 µM
9 | CC(C)Nc1nc2c(c(=O)n1-c1ccc(N3CC[C@@H](O)C3)cc1)C[C@@H](C)N(C(=O)c1ccc(Cl)c(Cl)c1)C2 [Compound C201, (6R)-7-(3,4-dichlorobenzoyl)-3-{4-[(3R)-3-hydroxypyrrolidin-1-yl]phenyl}-6-methyl-2-[(propan-2-yl)amino]-5,6,7,8-tetrahydropyrido[3,4-d]pyrimidin-4(3H)-one] | 36.8 µM | 0.2 µM
10 | CC(C)Nc1nc2c(c(=O)n1-c1ccc(N3CC(=O)N(C)C3)cc1)C[C@@H](C)N(C(=O)c1ccc(Cl)c(Cl)c1)C2 [Compound C202, (6R)-7-(3,4-dichlorobenzoyl)-6-methyl-3-[4-(3-methyl-4-oxoimidazolidin-1-yl)phenyl]-2-[(propan-2-yl)amino]-5,6,7,8-tetrahydropyrido[3,4-d]pyrimidin-4(3H)-one] | > 50 µM | 0.19 µM
11 | CC(C)Nc1nc2c(c(=O)n1-c1ccc(C(=O)NCCN3CCOCC3)cc1)C[C@@H](C)N(C(=O)c1ccc(Cl)c(Cl)c1)C2 [Compound C203, 4-[(6R)-7-(3,4-dichlorobenzoyl)-6-methyl-4-oxo-2-[(propan-2-yl)amino]-5,6,7,8-tetrahydropyrido[3,4-d]pyrimidin-3(4H)-yl]-N-[2-(morpholin-4-yl)ethyl]benzamide] | > 50 µM | 0.15 µM
12 | CC(C)Nc1nc2c(c(=O)n1-c1ccc(C(=O)NCCO)cc1)C[C@@H](C)N(C(=O)c1ccc(Cl)c(Cl)c1)C2 [Compound C204, 4-[(6R)-7-(3,4-dichlorobenzoyl)-6-methyl-4-oxo-2-[(propan-2-yl)amino]-5,6,7,8-tetrahydropyrido[3,4-d]pyrimidin-3(4H)-yl]-N-(2-hydroxyethyl)benzamide] | > 50 µM | 0.54 µM
13 | COCCNC(=O)c1ccc(-n2c(NC(C)C)nc3c(c2=O)C[C@@H](C)N(C(=O)c2ccc(Cl)c(Cl)c2)C3)cc1 [Compound C205, 4-[(6R)-7-(3,4-dichlorobenzoyl)-6-methyl-4-oxo-2-[(propan-2-yl)amino]-5,6,7,8-tetrahydropyrido[3,4-d]pyrimidin-3(4H)-yl]-N-(2-methoxyethyl)benzamide] | > 50 µM | 0.13 µM
14 | CC(C)Nc1nc2c(c(=O)n1-c1ccc3c(c1)CC(=O)N3)C[C@@H](C)N(C(=O)c1ccc(Cl)c(Cl)c1)C2 [Compound C206, (6R)-7-(3,4-dichlorobenzoyl)-6-methyl-3-(2-oxo-2,3-dihydro-1H-indol-5-yl)-2-[(propan-2-yl)amino]-5,6,7,8-tetrahydropyrido[3,4-d]pyrimidin-4(3H)-one] | 48.9 µM | 0.16 µM
15 | C[C@@H]1Cc2c(nc(NC(C)(C)c3cnn(C)c3)n(-c3ccc(S(C)(=O)=O)cc3)c2=O)CN1C(=O)c1ccc(Cl)c(Cl)c1 [Compound C207, (6R)-7-(3,4-dichlorobenzoyl)-3-[4-(methanesulfonyl)phenyl]-6-methyl-2-{[2-(1-methyl-1H-pyrazol-4-yl)propan-2-yl]amino}-5,6,7,8-tetrahydropyrido[3,4-d]pyrimidin-4(3H)-one] | > 50 µM | 0.59 µM
16 | CC(C)Nc1nc2c(c(=O)n1-c1ccc(C(=O)NCCN3CCN(C)CC3)cc1)C[C@@H](C)N(C(=O)c1ccc(Cl)c(Cl)c1)C2 [Compound C208, 4-[(6R)-7-(3,4-dichlorobenzoyl)-6-methyl-4-oxo-2-[(propan-2-yl)amino]-5,6,7,8-tetrahydropyrido[3,4-d]pyrimidin-3(4H)-yl]-N-[2-(4-methylpiperazin-1-yl)ethyl]benzamide] | 26.3 µM | 0.62 µM
17 | CC(C)Nc1nc2c(c(=O)n1-c1ccc(C(=O)NC3COC3)cc1)C[C@@H](C)N(C(=O)c1ccc(Cl)c(Cl)c1)C2 [Compound C209, 4-[(6R)-7-(3,4-dichlorobenzoyl)-6-methyl-4-oxo-2-[(propan-2-yl)amino]-5,6,7,8-tetrahydropyrido[3,4-d]pyrimidin-3(4H)-yl]-N-(oxetan-3-yl)benzamide] | > 50 µM | 0.82 µM
18 | CNC(=O)c1ccc(-n2c(NC(C)C)nc3c(c2=O)CCN(C(=O)c2ccc(Cl)c(Cl)c2)C3)cc1Cl [Compound C210, 2-chloro-4-[7-(3,4-dichlorobenzoyl)-4-oxo-2-[(propan-2-yl)amino]-5,6,7,8-tetrahydropyrido[3,4-d]pyrimidin-3(4H)-yl]-N-methylbenzamide] | > 50 µM | 0.27 µM
19 | Cc1noc(C)c1-c1ccc(-n2c(NC(C)C)nc3c(c2=O)C[C@@H](C)N(C(=O)c2ccc(Cl)c(Cl)c2)C3)cc1 [Compound C211, (6R)-7-(3,4-dichlorobenzoyl)-3-[4-(3,5-dimethyl-1,2-oxazol-4-yl)phenyl]-6-methyl-2-[(propan-2-yl)amino]-5,6,7,8-tetrahydropyrido[3,4-d]pyrimidin-4(3H)-one] | > 50 µM | 0.15 µM
20 | CC(C)Nc1nc2c(c(=O)n1-c1ccc(-c3ccns3)cc1)C[C@@H](C)N(C(=O)c1ccc(Cl)c(Cl)c1)C2 [Compound C212, (6R)-7-(3,4-dichlorobenzoyl)-6-methyl-2-[(propan-2-yl)amino]-3-[4-(1,2-thiazol-5-yl)phenyl]-5,6,7,8-tetrahydropyrido[3,4-d]pyrimidin-4(3H)-one] | > 50 µM | 0.26 µM
21 | CC(C)Nc1nc2c(c(=O)n1-c1ccc(-c3cnc[nH]3)cc1)C[C@@H](C)N(C(=O)c1ccc(Cl)c(Cl)c1)C2 [Compound C213, (6R)-7-(3,4-dichlorobenzoyl)-3-[4-(1H-imidazol-5-yl)phenyl]-6-methyl-2-[(propan-2-yl)amino]-5,6,7,8-tetrahydropyrido[3,4-d]pyrimidin-4(3H)-one] | > 50 µM | 0.36 µM
22 | CC(C)Nc1nc2c(c(=O)n1-c1ccc(C(=O)NCC(C)(C)C(=O)O)cc1)C[C@@H](C)N(C(=O)c1ccc(Cl)c(Cl)c1)C2 [Compound C214, 3-{4-[(6R)-7-(3,4-dichlorobenzoyl)-6-methyl-4-oxo-2-[(propan-2-yl)amino]-5,6,7,8-tetrahydropyrido[3,4-d]pyrimidin-3(4H)-yl]benzamido}-2,2-dimethylpropanoic acid] | > 50 µM | 14.6 µM
23 | CC(C)Nc1nc2c(c(=O)n1-c1ccc(N3CCCC3CO)cc1)C[C@@H](C)N(C(=O)c1ccc(Cl)c(Cl)c1)C2 (stereo partly drawn) [Compound C215, (6R)-7-(3,4-dichlorobenzoyl)-3-{4-[2-(hydroxymethyl)pyrrolidin-1-yl]phenyl}-6-methyl-2-[(propan-2-yl)amino]-5,6,7,8-tetrahydropyrido[3,4-d]pyrimidin-4(3H)-one] | 31.9 µM | 0.21 µM
